No end group written: not given here.
Tests used:
[1] = test system: P. aeruginosa 6294; assay: bacterial adhesion (total counts) and viable counts on coated etafilcon A lenses; type: cell-based, Pseudomonas aeruginosa; set-up: key to Reduction v. control* / Reduction v. total**: “—” indicates no reduction in adhesion; conditions: for Reduction v. control* / Reduction v. total**: strain 6294
Description: (§1) For conducting total counts, etafilcon A lenses were removed from the manufacturers vials, washed three times in 1 ml PBS and then coated with various concentrations of cationic proteins/peptides overnight at 37° C. either individually or in combination. After incubation, the lenses were washed three times in PBS and 0.5 ml of 1×10^8 bacterial cells/ml was added to the lenses. After incubation at ambient temperature for 10 min, the lenses were washed three times in PBS to remove non-adherent or loosely adherent bacteria and stained with crystal violet for 1 min. The number of cells per lens was examined under the microscope. Five grids (0.005625 mm^2) per lens were counted and triplicate lenses for each treatment were assayed.
(§2) For conducting viable counts, etafilcon A lenses were removed from the manufacturers vials, washed three times in 1 ml PBS and then coated with various concentrations of cationic proteins/peptides overnight at 37° C. (either individually or in combination). After incubation, the lenses were washed three times in PBS and 0.5 ml of 1×10^8 bacterial cells/ml was added to the lenses. After incubation at ambient temperature for 10 min, the lenses were washed three times in PBS to remove non-adherent or loosely adherent bacteria. Lenses were then homogenized using 1 ml PBS and a small magnetic stirring bar (octagonal cross-section, 0.5″×0.125″) and stirred at maximum speed for one hour which was sufficient for lens disintegration. Serial dilutions were then made according to the technique of Miles and Misra and aliquots (20 μL) plated out on nutrient agar. After incubation overnight at 37° C., viable bacteria were determined and results expressed as colony forming units/mm^2 after calculation of the surface area of the lens (approximately 310 mm^2).
(§3) The lenses were incubated in concentrations of cationic proteins/peptides that were either effective in solution or the highest concentration available if there was no effect in solution. After rinsing, bacteria were added and numbers of cells analyzed as the total cells per mm^2 of the lens or the number of viable cells per mm^2 of the lens.

[2] = test system: S. aureus 31; assay: as above; type: cell-based, Staphylococcus aureus; set-up: key to Reduction v. control* / Reduction v. total**: “—” indicates no reduction in adhesion; conditions: for Reduction v. control* / Reduction v. total**: strain Saur 31; for Reduction v. control*: coated etafilcon A lens compared to adhesion control lens not coated; for Reduction v. total**: compared to the number of total bacterial cells adhered to coated lens (growth of adhered bacteria)
Description: as §1, §2, §3

[3] = test system: bacteria; assay: surface coatings: adherence and growth of bacteria on the device (summary statements); type: cell-based; conditions: coated lenses, in words; for viability of adhered cells: compared to the cells adhered to the uncoated lens
Description: as §1, §2, §3

[4] = test system: Pseudomonas aeruginosa 6294; assay: growth of bacteria in solution with cationic proteins/peptides (slow growing in PBS, rapid growing in TSB); type: cell-based
Description: (§4) To assess the effect of the cationic proteins/peptides in solution against rapid growing bacterial cells, bacteria were cultured in Trypticase soy broth (“TSB”) overnight at 35° C. Aliquots (20 μl) of this cell suspension were then added to fresh TSB (10 ml). Different concentrations of the cationic proteins/peptides were added to the fresh broth and incubated for up to 48 h at 35° C. Samples were taken at different time points and the optical density at 660 nm measured as a measure of changes in bacterial numbers was measured.
(§5) To assess the effect of the cationic proteins/peptides in solution against slow growing bacterial cells, cells were grown as previously in TSB. The cells were then harvested by centrifugation and washed in phosphate buffered saline (PBS; NaCl 8 g/l; KCl 0.2 g/l; Na2HPO4 1.15 g/l; KH2PO4 0.2 g/l). The cells were then re-suspended to OD 0.1 (unless otherwise stated) at 660 nm in PBS, different concentrations of cationic proteins/peptides were added and incubated for up to 48 h at 35° C. Samples were taken a different points and numbers of bacteria analyzed using the Miles and Misra technique (i.e. numbers that are viable after plating dilutions onto nutrient agar plates).
(§6) The results obtained in solution for all cationic proteins and peptides studied are shown on Table 3. Most protein/peptides were screened against only P. aeruginosa 6294 and S. aureus 31.
(§7) In Table 3, slow growing cells are those re-suspended in PBS with cationic protein/peptide and rapid growing are those re-suspended in TSB plus cationic protein/peptide. The numbers in μg/ml are in concentration showing peak activity. A “−” sign indicates no reduction in bacterial growth, a “+” sign indicates a 1 to 50% reduction in growth, a “++” sign indicates a 51 to 89% reduction in growth, a “+++” sign indicates a 90 to 98% reduction in growth a “++++” sign indicates a greater than 98% reduction in growth.

[5] = test system: Pseudomonas aeruginosa Paer1; assay: as above; type: cell-based; conditions: Paer 1; 24 h, 15 μg/ml slow growing
Description: as §4, §5, §6, §7

[6] = test system: Staphylococcus aureus Saur31; assay: as above; type: cell-based; conditions: Saur 31
Description: as §4, §5, §6, §7

[7] = test system: Serratia marcesens Smar5; assay: as above; type: cell-based; set-up: key: A “−” sign indicates no reduction in bacterial growth; —: A “−” sign indicates no reduction in bacterial growth; a “+” sign indicates a 1 to 50% reduction in growth; a “++” sign indicates a 51 to 89% reduction in growth; a “+++” sign indicates a 90 to 98% reduction in growth; a “++++” sign indicates a greater than 98% reduction in growth; conditions: Smar 5
Description: as §4, §5, §6, §7

[8] = test system: Staphylococcus intermedius Sint 2; assay: as above; type: cell-based; set-up: key: A “−” sign indicates no reduction in bacterial growth; —: A “−” sign indicates no reduction in bacterial growth; a “+” sign indicates a 1 to 50% reduction in growth; a “++” sign indicates a 51 to 89% reduction in growth; a “+++” sign indicates a 90 to 98% reduction in growth; a “++++” sign indicates a greater than 98% reduction in growth
Description: as §4, §5, §6, §7

[9] = test system: gram-positive and gram-negative bacteria; assay: growth of bacteria in solution (summary statement); type: cell-based; conditions: in words
Description: as §4, §5, §6

[10] = test system: Pseudomonas aeruginosa 6206; assay: growth of bacteria in solution with cationic proteins/peptides (slow growing in PBS, rapid growing in TSB); type: cell-based; set-up: key: A “−” sign indicates no reduction in bacterial growth; —: A “−” sign indicates no reduction in bacterial growth; a “+” sign indicates a 1 to 50% reduction in growth; a “++” sign indicates a 51 to 89% reduction in growth; a “+++” sign indicates a 90 to 98% reduction in growth; a “++++” sign indicates a greater than 98% reduction in growth
Description: as §4, §5, §6, §7

[11] = coated etafilcon A lens compared to adhesion control lens not coated
[12] = compared to the number of total bacterial cells adhered to coated lens (growth of adhered bacteria)
[13] = slow growing (PBS), 125-1000 μg/ml

Molecule | Reduction v. control* [1, 11] | Reduction v. total** [1, 12] | Reduction v. control* [2] | Reduction v. total** [2] | other results
Cecropin A | — | 93% | — | — | viability of adhered cells [3]: significant reduction in the viability; total adhesion of bacteria [3]: did not reduce the total adhesion
Cecropin P1 | — | — | — | — | 
Defensin HNP-1 | — | — | — | — | reduction in bacterial growth ([4]; 2 μg/ml): +(2 μg/ml) (a “+” sign indicates a 1 to 50% reduction in growth)
Magainin 1 (GIGKFLHSAGKFGKAFVGEIMKS; Magainin-1; UniProt P11006 37-59, looked up) [cationic peptide, source frog] | — | — | — | — | 
Magainin 2 | — | — | — | — | reduction in bacterial growth ([4]; 24 h, 400 μg/ml, slow growing): +++(24 h, (a “+++” sign indicates a 90 to 98% reduction in growth)
Melittin | 70% |  | 60% |  | reduction in bacterial growth ([4]; 24 h, 15 μg/ml slow growing): ++(24 h, (a “++” sign indicates a 51 to 89% reduction in growth); reduction in bacterial growth [5]: ++++(24 h, (a “++++” sign indicates a greater than 98% reduction in growth); reduction in bacterial growth ([6]; 15 μg/ml rapid growing): ++++ (a “++++” sign indicates a greater than 98% reduction in growth); reduction in bacterial growth ([6]; 24 h, 15 μg/ml slow growing): ++++(24 h, (a “++++” sign indicates a greater than 98% reduction in growth); reduction in bacterial growth ([7]; growth state not given, 15 μg/ml): —; reduction in bacterial growth ([8]; 24 h, 15 μg/ml rapid growing): ++++(24 h, (a “++++” sign indicates a greater than 98% reduction in growth); reduction in bacterial growth ([8]; 24 h, 15 μg/ml slow growing): ++++(24 h, (a “++++” sign indicates a greater than 98% reduction in growth); initial adhesion of S. aureus 31 ([2]; coated lenses, in words): reduced initial adhesion; preventing the growth of gram-positive and gram-negative bacteria in solution [9]: most efficacious
Melittin-1-13 AA | — | — | — | — | reduction in bacterial growth ([4]; 24h, 1000 μg/ml): ++(24h, (a “++” sign indicates a 51 to 89% reduction in growth); reduction in bacterial growth ([6]; 48h, 24h, 1000 μg/ml): ++(48h, (a “++” sign indicates a 51 to 89% reduction in growth)
Nisin |  |  | — | 50% | reduction in bacterial growth ([4]; 2 μg/ml): ++(2 μg/ml) (a “++” sign indicates a 51 to 89% reduction in growth); viability of adhered cells [3]: significant reduction in the viability; total adhesion of bacteria [3]: did not reduce the total adhesion
Protamine | 80% | 80% | — | — | reduction in bacterial growth [10, 13]: ++++(slow (a “++++” sign indicates a greater than 98% reduction in growth); reduction in bacterial growth ([7]; 1000 μg/ml slow growing): ++++(1000 (a “++++” sign indicates a greater than 98% reduction in growth); reduction in bacterial growth ([7]; <1000 μg/ml slow growing): −(<1000; reduction in bacterial growth ([8]; rapid growing (TSB), 125-1000 μg/ml): −(rapid; reduction in bacterial growth [8, 13]: ++++ (slow (a “++++” sign indicates a greater than 98% reduction in growth); viability of the cells on the coated lenses ([1]; P. aeruginosa 6294, in words): reduced the viability; adhesion of P. aeruginosa 6294 to the lenses ([1]; coated lenses, in words): significantly reduced the adhesion; preventing the growth of gram-positive and gram-negative bacteria in solution [9]: most efficacious
Transferrin |  |  |  |  | Reduction v. control* ([1]; 125 μg/ml, compared to adhesion control lens not coated): —; Reduction v. total** ([1]; 125 μg/ml, compared to total bacterial cells adhered to coated lens): —
β Defensin 1 (DHYNCVSSGGQCLYSACPIFTKIQGTCYRGKAKCCK; ends and bridges not checked; cysteine pairing not given here; UniProt P60022 33-68, looked up) [cationic peptide, source human] | — | — | — | — | reduction in bacterial growth ([4]; 24h, 60 μg/ml): ++(24h, (a “++” sign indicates a 51 to 89% reduction in growth)
Secretory leukocyte protease inhibitor (protein, UniProt P03973 26-132, looked up, cationic protein, source human) Antileukoproteinase: SGKSFKAGVCPPKKSAQCLRYKKPECQSDWQCPGKKRCCPDTCGIKCLDPVDTPNPTRRKPGKCPVTYGQCLMLNPPNFCEMDGQCKRDLKCCMGMCGKSCVSPVKA | — | — | — | — | reduction in bacterial growth ([10]; growth state not given, 10-100 μg/ml): —

Reference: patent US20030007993A1, “biomedical devices with antimicrobial cationic peptide and protein coatings” (priority 2000, published 2003)
